These results are taken from ChEMBL document CHEMBL3272116, “Synthesis and evaluation of brain catecholamine depletion by N-alkyl derivatives of 6-aminodopamine” (1976).

In experiment [1] the test system is Mus musculus. In words: Depletion of norepinephrine in mouse brain at 50 ug administered intracranially at 24 hrs interval on three successive days measured 24 hrs post last dose relative to control. In kind it is functional.
Experiment [2] deals with Mus musculus. As to the kind of experiment: Depletion of dopamine in mouse brain at 50 ug administered intracranially at 24 hrs interval on three successive days measured 24 hrs post last dose relative to control. The format is functional.

SMILES strings stand for the structures.

With `CN(C)CCc1cc(O)c(O)cc1N`, the Activity with Mus musculus [1] is 88%; in the experiment with Mus musculus [2], 94%.
As for `Br.CNCCc1cc(O)c(O)cc1N`, the Activity in the experiment on Mus musculus [1] is reported as 66%.
In the experiment with Mus musculus [1], `CC(C)NCCc1cc(O)c(O)cc1N` returned an Activity of 81%.
With `NCCc1cc(O)c(O)cc1N`, the Activity came out at 34% with Mus musculus [1] and 106% in the experiment on Mus musculus [2].
